Measurements from ChEMBL document CHEMBL1201862, “PubChem BioAssay data set” (2004).
Active and inactive are the calls of the source.

Legend:
[1] = microbe, parasite or virus in culture; type: functional; details: Mycobacterium tuberculosis
Protein skinhead-1 = target: T1, Protein skinhead-1 (Caenorhabditis elegans, UniProt P34707); type: functional
T1 sequence (P34707 whole entry): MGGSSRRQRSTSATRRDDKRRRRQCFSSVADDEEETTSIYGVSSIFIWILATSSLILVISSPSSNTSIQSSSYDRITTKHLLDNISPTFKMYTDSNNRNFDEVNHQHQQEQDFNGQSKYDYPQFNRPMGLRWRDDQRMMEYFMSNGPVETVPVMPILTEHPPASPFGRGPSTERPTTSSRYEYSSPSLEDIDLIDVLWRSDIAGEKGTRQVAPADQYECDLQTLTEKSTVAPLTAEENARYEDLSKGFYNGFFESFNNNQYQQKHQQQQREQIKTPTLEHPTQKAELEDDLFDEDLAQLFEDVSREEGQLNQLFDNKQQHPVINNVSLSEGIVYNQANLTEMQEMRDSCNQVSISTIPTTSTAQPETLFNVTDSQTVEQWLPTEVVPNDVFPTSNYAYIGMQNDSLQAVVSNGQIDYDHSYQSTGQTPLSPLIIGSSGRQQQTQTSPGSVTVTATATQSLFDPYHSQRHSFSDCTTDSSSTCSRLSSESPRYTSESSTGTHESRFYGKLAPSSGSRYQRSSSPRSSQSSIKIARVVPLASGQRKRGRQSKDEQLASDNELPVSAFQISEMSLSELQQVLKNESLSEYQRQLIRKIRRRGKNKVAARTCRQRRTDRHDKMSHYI

Fatty acid synthase [2] = target: T2, Fatty acid synthase (Homo sapiens, UniProt P49327); assay: inhibition of human FAS-TE enzyme activity – biochemical, kinetic fluorescence intensity, dose response (AID 624326); type: functional;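 note: rate of fluorescence rise from hydrolysis of a fluorogenic O-methyl fluorescein ester substrate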
Fatty acid synthase [3] = target: T2, Fatty acid synthase; assay: inhibition of human FAS-TE enzyme activity – biochemical, endpoint fluorescence intensity, uHTS hits, dose response (AID 624327); type: functional;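 note: fluorescence from hydrolysis of an O-methyl fluorescein acyl ester substrate by the enzyme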
[4] = target: T3, Polyadenylate-binding protein 1 (Homo sapiens, UniProt P11940); assay: MLLE domain peptide-binding blockers, IC50 – biochemical, fluorescence polarization, FITC-PAM2 peptide, dose response (AID 602259); type: functional; details: read-out: IC50_Mean
[5] = target: T3, Polyadenylate-binding protein 1; assay: MLLE binding blockers, Cy5 peptide tracer – biochemical, fluorescence polarization, Cy5-PAM2 peptide, secondary, miRNA deadenylation inhibitor project, dose response (AID 602260); type: functional; details: read-out: IC50_Mean
[6] = HIV-1 AD8 envelope cell-cell fusion blockers – cherry-pick, dose response (AID 652062); type: functional, cell-based;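 note: luciferase signal from cell-cell fusion driven by HIV-1 clade B AD8 Env; potency is for inhibitors of fusion seen as a drop in luminescence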
[7] = system: Streptococcus sp. 'group A'; assay: Streptococcus pyogenes SK(-)GAS viability under kanamycin – luminescence, BacTiterGlo, confirmation, counter-screen for streptokinase expression inhibitor project, dose response (AID 1900); type: functional, organism-based
Streptococcus = assay: GAS UMAA2166 growth inhibition – luminescence, BacTiterGlo, counter-screen for streptokinase expression inhibitor project, dose response (AID 1915); type: functional, organism-based;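 note: potency for reduction of bacterial viability or growth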
Streptokinase A = target: T4, Streptokinase A (Streptococcus pyogenes serotype M1, UniProt P10520); assay: viability-normalized secreted streptokinase activity reduction – plasminogen activation absorbance, OD405, dose response (AID 1914); type: functional, Streptococcus pyogenes M1 GAS;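 note: secreted streptokinase activity via plasminogen activation per viability signal from cell pellet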
T4 sequence (P10520 whole entry): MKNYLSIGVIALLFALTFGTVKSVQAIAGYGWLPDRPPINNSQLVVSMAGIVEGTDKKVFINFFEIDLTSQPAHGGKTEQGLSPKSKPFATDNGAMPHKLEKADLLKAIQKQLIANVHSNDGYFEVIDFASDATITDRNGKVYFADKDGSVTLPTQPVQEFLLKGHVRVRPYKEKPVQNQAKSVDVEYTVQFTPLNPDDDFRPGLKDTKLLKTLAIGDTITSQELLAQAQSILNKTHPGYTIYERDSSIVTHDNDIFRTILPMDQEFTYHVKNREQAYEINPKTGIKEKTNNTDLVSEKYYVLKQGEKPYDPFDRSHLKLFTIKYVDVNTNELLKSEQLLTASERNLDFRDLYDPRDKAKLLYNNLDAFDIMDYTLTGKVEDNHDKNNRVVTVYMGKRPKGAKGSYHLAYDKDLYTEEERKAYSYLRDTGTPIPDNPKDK

T3 sequence (P11940 whole entry, the tested form may be a part): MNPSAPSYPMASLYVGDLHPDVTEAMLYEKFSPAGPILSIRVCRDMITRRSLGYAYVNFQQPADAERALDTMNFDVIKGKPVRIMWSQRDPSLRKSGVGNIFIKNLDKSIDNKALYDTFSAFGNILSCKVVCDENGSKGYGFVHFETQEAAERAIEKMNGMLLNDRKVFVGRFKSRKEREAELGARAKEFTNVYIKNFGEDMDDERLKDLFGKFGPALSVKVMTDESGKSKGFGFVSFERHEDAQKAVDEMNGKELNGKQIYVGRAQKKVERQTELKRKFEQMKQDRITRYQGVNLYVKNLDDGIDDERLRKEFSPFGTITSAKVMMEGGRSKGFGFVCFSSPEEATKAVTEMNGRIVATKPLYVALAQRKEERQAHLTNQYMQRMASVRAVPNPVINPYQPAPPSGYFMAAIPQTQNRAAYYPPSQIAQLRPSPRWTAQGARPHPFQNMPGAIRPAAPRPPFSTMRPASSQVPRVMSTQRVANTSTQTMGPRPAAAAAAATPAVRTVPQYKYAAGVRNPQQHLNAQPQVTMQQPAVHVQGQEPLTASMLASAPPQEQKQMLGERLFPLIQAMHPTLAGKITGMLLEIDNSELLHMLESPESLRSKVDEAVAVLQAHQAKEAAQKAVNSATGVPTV
T2 sequence (P49327 whole entry): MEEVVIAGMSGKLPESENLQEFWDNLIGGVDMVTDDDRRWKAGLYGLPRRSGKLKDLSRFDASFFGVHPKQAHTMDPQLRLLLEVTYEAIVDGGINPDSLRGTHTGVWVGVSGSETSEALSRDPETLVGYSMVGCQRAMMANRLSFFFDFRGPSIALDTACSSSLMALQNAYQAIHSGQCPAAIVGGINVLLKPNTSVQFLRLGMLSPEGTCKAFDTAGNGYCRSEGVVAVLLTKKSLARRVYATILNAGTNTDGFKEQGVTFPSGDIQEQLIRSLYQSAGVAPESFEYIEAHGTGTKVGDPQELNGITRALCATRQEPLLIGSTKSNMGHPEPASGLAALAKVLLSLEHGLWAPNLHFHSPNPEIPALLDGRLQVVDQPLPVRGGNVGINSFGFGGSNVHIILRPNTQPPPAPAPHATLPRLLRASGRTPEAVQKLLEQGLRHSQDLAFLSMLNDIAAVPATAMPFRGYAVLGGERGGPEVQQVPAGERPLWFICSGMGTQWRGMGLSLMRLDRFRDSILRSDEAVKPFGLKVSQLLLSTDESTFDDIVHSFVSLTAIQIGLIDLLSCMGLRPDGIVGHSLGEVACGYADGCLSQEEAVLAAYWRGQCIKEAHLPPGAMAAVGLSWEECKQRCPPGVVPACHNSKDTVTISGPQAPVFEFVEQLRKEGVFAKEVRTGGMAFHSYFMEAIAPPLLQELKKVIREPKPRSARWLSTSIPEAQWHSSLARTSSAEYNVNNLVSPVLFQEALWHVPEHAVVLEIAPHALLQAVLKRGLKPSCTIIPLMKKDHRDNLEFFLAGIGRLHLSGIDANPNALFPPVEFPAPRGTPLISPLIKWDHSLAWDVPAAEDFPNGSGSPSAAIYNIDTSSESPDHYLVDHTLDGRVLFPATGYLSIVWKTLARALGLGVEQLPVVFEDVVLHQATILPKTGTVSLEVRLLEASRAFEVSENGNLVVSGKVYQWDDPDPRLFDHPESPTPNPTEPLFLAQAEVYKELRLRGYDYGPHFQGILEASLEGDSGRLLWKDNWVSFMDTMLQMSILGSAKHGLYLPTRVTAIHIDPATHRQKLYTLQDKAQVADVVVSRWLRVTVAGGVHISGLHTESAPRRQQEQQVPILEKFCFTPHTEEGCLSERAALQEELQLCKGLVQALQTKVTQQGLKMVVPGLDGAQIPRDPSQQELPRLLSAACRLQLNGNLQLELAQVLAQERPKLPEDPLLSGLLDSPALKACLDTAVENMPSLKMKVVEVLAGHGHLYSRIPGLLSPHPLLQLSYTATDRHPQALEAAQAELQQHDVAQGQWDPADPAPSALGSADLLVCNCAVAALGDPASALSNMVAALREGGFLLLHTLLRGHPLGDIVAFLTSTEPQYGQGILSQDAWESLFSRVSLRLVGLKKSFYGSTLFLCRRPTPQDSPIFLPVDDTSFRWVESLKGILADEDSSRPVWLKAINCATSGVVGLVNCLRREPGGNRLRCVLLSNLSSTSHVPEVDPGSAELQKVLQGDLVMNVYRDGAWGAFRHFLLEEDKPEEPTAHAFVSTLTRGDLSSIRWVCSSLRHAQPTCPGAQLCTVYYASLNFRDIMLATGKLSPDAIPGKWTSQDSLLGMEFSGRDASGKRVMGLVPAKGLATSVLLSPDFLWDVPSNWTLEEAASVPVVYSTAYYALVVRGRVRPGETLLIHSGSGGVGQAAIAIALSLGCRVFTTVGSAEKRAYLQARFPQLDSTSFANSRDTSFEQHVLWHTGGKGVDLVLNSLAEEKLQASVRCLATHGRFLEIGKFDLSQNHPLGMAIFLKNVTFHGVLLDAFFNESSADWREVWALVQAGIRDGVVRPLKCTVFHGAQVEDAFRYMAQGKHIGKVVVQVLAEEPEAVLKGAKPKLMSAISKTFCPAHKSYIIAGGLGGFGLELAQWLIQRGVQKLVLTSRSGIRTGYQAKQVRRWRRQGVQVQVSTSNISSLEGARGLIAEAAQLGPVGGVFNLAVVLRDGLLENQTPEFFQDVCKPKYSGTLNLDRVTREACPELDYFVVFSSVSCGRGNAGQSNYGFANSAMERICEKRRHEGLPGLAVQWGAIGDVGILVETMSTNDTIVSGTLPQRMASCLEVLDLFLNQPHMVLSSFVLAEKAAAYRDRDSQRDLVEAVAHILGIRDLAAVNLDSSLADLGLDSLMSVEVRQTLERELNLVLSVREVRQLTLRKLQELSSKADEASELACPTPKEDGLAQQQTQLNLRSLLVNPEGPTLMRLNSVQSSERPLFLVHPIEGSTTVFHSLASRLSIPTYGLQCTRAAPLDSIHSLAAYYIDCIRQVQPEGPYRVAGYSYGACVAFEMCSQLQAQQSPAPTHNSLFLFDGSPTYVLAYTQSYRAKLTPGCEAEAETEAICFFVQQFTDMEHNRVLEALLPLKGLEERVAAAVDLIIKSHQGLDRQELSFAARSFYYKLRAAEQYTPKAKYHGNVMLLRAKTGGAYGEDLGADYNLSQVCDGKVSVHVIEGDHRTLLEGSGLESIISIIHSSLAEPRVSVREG

For O=C1C=C(c2ccc3[nH]ccc3c2)C[C@@H](c2ccc(Cl)cc2)C1, the CC50 [1] was > 40 µM (active).

For CCCCCOc1ccc(NC2=CC(=O)CCC2)cc1, the CC50 [1] was > 40 µM (active).

For COc1ccc(-n2c(C)nc3cc(C(=O)NCc4ccco4)ccc32)cc1, the IC50 (Protein skinhead-1) was > 100 µM (inactive).

For COc1cccc(NC(=O)C(C)Oc2ccccc2)c1 (stereo not drawn), the IC50 (Protein skinhead-1) was > 100 µM (inactive).

For CCOC(=O)C1CCN(C(=O)COC(=O)c2cc([N+](=O)[O-])ccc2N2CCOCC2)CC1, the IC50 (Fatty acid synthase [2]) was 7.1 µM (active) and the IC50 (Fatty acid synthase [3]) was 4.15 µM (active).

In the case of O=C(CCc1ccccc1)NC1CCSC1=O (stereo not drawn), the IC50 (Protein skinhead-1) is reported as > 100 µM (inactive).

In the case of CCN(CC)S(=O)(=O)c1ccc2c(c1)nc(SC(C)C(N)=O)n2-c1ccc(OC)cc1 (stereo not drawn), the IC50 (Protein skinhead-1) is reported as > 100 µM (inactive).

In the case of CCN(CC)C(=O)CSc1nnc2nnc3cc(C)ccc3n12, the IC50 [4] is reported as 49.8 µM (inactive) and the IC50 [5] is reported as > 66 µM (inactive).

For Cc1nc(NC(=S)NC(=O)c2ccco2)sc1C(=O)N(C)C, the IC50 [4] was > 66 µM (inactive) and the IC50 [5] was > 66 µM (inactive).

With Clc1ccc(-c2nnc(-c3ccccc3)o2)c(Cl)c1 the IC50 (Protein skinhead-1) was 51.6 µM (inactive).

For Cc1ccc(C(=O)NC(=S)Nc2ccc3[nH]c(O)nc3c2)c(C)c1, the IC50 [4] was > 66 µM (inactive) and the IC50 [5] was > 66 µM (inactive).

In the case of CCc1ccc(S(=O)(=O)c2nnn3c2nc(N2CCOCC2)c2ccccc23)cc1, the IC50 (Fatty acid synthase [2]) is reported as 6.03 µM (active) and the IC50 (Fatty acid synthase [3]) is reported as 14.3 µM (active).

For O=C(NC(=S)NCCO)c1cn(-c2ccccc2)nc1-c1ccccc1, the IC50 [4] was > 66 µM (inactive) and the IC50 [5] was > 66 µM (inactive).

With O=S(=O)(Oc1ccccc1C(=S)N1CCOCC1)c1ccc(Cl)cc1 the IC50 [4] was > 66 µM (inactive) and the IC50 [5] was > 66 µM (inactive).

In the case of O=S(=O)(c1cccs1)N1CCN(Cc2nc(O)c3cc(Br)cc(Br)c3n2)CC1, the IC50 (Fatty acid synthase [2]) is reported as 9.03 µM (active) and the IC50 (Fatty acid synthase [3]) is reported as 12.5 µM (active).

For Cn1nc(C(C)(C)C)cc1NC(=O)Nc1cc(Cl)cc(Cl)c1, the CC50 [1] was 11.3 µM (active).

For O=C(/C=C/c1cc([N+](=O)[O-])ccc1OC(F)F)NCc1ccc(Cl)cc1, the IC50 (Fatty acid synthase [2]) was 0.413 µM (active) and the IC50 (Fatty acid synthase [3]) was 0.351 µM (active).

For COc1ccc(NS(=O)(=O)c2ccc3c(c2)OCCO3)cc1OC, the AC50 [6] was 7.24 µM (active).

With COc1ccc(CNC(C)C2COc3ccccc3O2)c(OC)c1 (stereo not drawn) the IC50 (Protein skinhead-1) was > 100 µM (inactive).

With N#Cc1ccc(CSc2ccc(S(=O)(=O)N3CCCC3)cn2)cc1 the IC50 (Fatty acid synthase [2]) was 6.67 µM (active) and the IC50 (Fatty acid synthase [3]) was 8.8 µM (active).

With COc1ccc(N=C(S)NC(NC(=O)c2ccc(Cl)cc2Cl)C(Cl)(Cl)Cl)c([N+](=O)[O-])c1 (stereo not drawn) the EC50 [7] was 1.22 µM (active), the EC50 (Streptococcus) was > 150 µM (not active) and the EC50 (Streptokinase A) was 20.9 µM (active). The IC50 [4] was > 66 µM (inactive) and the IC50 [5] was > 66 µM (inactive).

With Cn1nc(C(=O)O)c(=O)n(C)c1=O the IC50 [4] was > 66 µM (inactive) and the IC50 [5] was > 66 µM (inactive).

With O=C(NCC(=O)N1CCOCC1)c1ccc(Cl)c(Cl)c1 the IC50 (Protein skinhead-1) was > 100 µM (inactive).

For Cc1ccc(-n2ccnc(SCC(=O)NC3CCCCC3)c2=O)cc1F, the IC50 [4] was > 66 µM (inactive) and the IC50 [5] was > 66 µM (inactive).

In the case of Cc1c(C)n(C)c2ccc(C(=O)NCCCN(C)C3CCCCC3)cc12, the IC50 (Protein skinhead-1) is reported as > 100 µM (inactive).

For CCCCCC(=O)OCc1ccc(C2=CC(=O)CC(C)(C)C2=O)cc1, the IC50 (Fatty acid synthase [2]) was 6.78 µM (active) and the IC50 (Fatty acid synthase [3]) was 7.22 µM (active).

With COc1cccc(NC(=O)COc2c(F)c(F)c(C(F)(F)F)c(F)c2F)c1 the IC50 (Fatty acid synthase [2]) was 10.5 µM (active) and the IC50 (Fatty acid synthase [3]) was 12.2 µM (active).

With COCC(=O)Nc1ccc2c(c1)C(=O)N(C)C[C@@H](OC)[C@@H](C)CN(C)[C@H](C)CO2 the AC50 [6] was 14.8 µM (active).

With O=C(CN(c1ccc(Cl)cc1)S(=O)(=O)c1ccccc1)N/N=C/c1ccco1 the IC50 (Fatty acid synthase [2]) was 6.94 µM (active) and the IC50 (Fatty acid synthase [3]) was 10.8 µM (active).
